# Source: patent publication US20260317344A1, “EGFR INHIBITORS FOR TREATING DISEASE” (BLOSSOMHILL THERAPEUTICS, INC., priority 2023, published 2026)
# Like-named read-outs stand apart in the source and are kept apart here.
# How the values were obtained:
# HCC827 cells = assay: 5-Day CellTiter Glo (CTG) cell proliferation assay, HCC827; type: cell-based; conditions: Homo sapiens, read-out: HCC827 IC50
# Method: (§1) 5-Day CellTiter Glo (CTG) Cell Proliferation Assays (PC9, H1975, H827)
# (§2) Cell proliferation assays were carried out in NSCLC cells with EGFR activation mutations. Both PC-9 cells and HCC827 cells (purchased from DSMZ) carry a Glu746-Ala750 deletion (d746-750) mutation in exon 19 of the EGFR gene and NCI-H1975 cells carry both L858R activation mutation and T790M gatekeeper mutation in the EGFR gene. One thousand PC-9, NCI-H1975 or HCC827 cells/100 μL per well were seeded in 96-well black plate with transparent bottom and then treated with indicated compounds in a 9-dose dilution series dispensed using TECAN d300e liquid dispenser. Cells were incubated with compounds for 120 hours at 37° C. and 5% CO2. Cell proliferation was measured using CellTiter-Glo 2.0 luciferase-based ATP detection assay (Promega, Madison, WI) at […] per well following the manufacturer's protocol. Plates were then read on a TECAN Sparks multimode microplate reader. Data was analyzed using GraphPad Prism 9 (GraphPad Software, San Diego, CA) to obtain IC50 values.
# NCI-H1975 cells = assay: 5-Day CellTiter Glo (CTG) cell proliferation assay, NCI-H1975; type: cell-based; conditions: Homo sapiens, read-out: H1975 IC50
# Method: as §1, §2
# PC-9 cells = assay: 5-Day CellTiter Glo (CTG) cell proliferation assay, PC-9; type: cell-based; conditions: Homo sapiens, read-out: PC-9 IC50
# Method: as §1, §2
# [1] = molecular target: T1, pEGFR, A431 cells (wildtype EGFR) (Homo sapiens, UniProt P00533); assay: Cellular EGFR phosphorylation assay (LANCE Ultra TR-FRET) in A431 cells; type: cell-based; conditions: 4 hours at 37° C., 40 ng/mL EGF for the final 10 minutes, read-out: A431 pEGFR IC50
# T1 construct: pEGFR (Tyr1068) TR-FRET
# Method: (§3) Cellular EGFR Phosphorylation Assays
# (§4) EGFR phosphorylation assays were conducted in NSCLC cells with EGFR activation mutations. PC-9 cells (purchased from Aldrich-Sigma) carry a Glu746-Ala750 deletion (d746-750) mutation in exon 19 of the EGFR gene and NCI-H1975 cells (purchased from ATCC) carry both L858R activation mutation and T790M gatekeeper mutation in the EGFR gene. A431 cells (purchased from ATCC) with amplification of wildtype EGFR, derived from epidermoid carcinoma, were used to measure the activity against wildtype EGFR. All cells were seeded in 96-well plates. For PC-9 and NCI-H1975 cells, 50 thousand cells were seeded per well. For A431 cells, 30 thousand cells were seeded per well. The next day, cells were exposed to compound for 4 hours at 37° C. and 5% CO2. Compounds were diluted in DMSO and added to cells in a 9-dose, 3-fold dilution, titration curve using TECAN d300e liquid dispenser. For A431 cells, 40 ng/mL of EGF was added to the media for the final 10 minutes of incubation. EGFR phosphorylation was measured using phospho-EGFR (Try1068) LANCE Ultra TR-FRET Detection Kit (TRF4015M) from PerkinElmer according to manufacturer's instructions. In brief, cells were lysed with 40 μL of lysis buffer plus 1× Halt protease and phosphatase inhibitor cocktail (Thermo 78441) and by incubation at room temperature for 1 h on a microplate shaker (350 rpm). 15 μ L of cell lysate was transferred to 384-well white plate and 5 μL of Europium- and ULight-labeled antibodies diluted in 1× detection buffer was added to each well. After 4-6 hours of incubation at room temperature, plates were then read on a TECAN Sparks multimode microplate reader. Data was analyzed using GraphPad Prism 9 (GraphPad Software, San Diego, CA) to obtain IC50 values.
# EGFR (D746-750/C797S) = EGFR (D746-750/C797S) (Homo sapiens, UniProt P00533, C797S/DEL746-750); assay: HotSpot radiometric kinase assay, inhibition of EGFR 746-750/C797S mutant; type: biochemical; conditions: 33P ATP, room temperature, 120 m
# Method: (§5) Biochemical Assays for inhibition of wild-type and mutant EGFRs
# (§6) Briefly, specific kinase/substrate pairs along with required cofactors were prepared in reaction buffer; 20 mM HEPES pH 7.5, 10 mM […], 1 mM EGTA, 0.02% Brij35, 0.02 mg/ml BSA, 0.1 mM Na3VO4, 2 mM DTT, 1% DMSO. Compounds were delivered into the reaction, followed ~20 minutes later by addition of a mixture of ATP (Sigma, St. Louis MO) and ^33P ATP (Perkin Elmer, Waltham MA) to a final concentration of […]. Reactions were carried out at room temperature for 120 m, followed by spotting of the reactions onto P81 ion exchange filter paper (Whatman Inc., Piscataway, NJ). Unbound phosphate was removed by extensive washing of filters in 0.75% phosphoric acid. […] IC50 values and curve fits were obtained using Prism (GraphPad Software).
# EGFR (D770_N771insNPG) = EGFR (D770_N771insNPG) (Homo sapiens, UniProt P00533, INS770NPG); assay: HotSpot radiometric kinase assay, inhibition of EGFR (D770_N771insNPG) mutant; type: biochemical; conditions: 33P ATP, room temperature, 120 m
# Method: as §5, §6
# EGFR (L858R/T790M/C797S) = EGFR (L858R/T790M/C797S) (Homo sapiens, UniProt P00533, C797S/L858R/T790M); assay: HotSpot radiometric kinase assay, inhibition of EGFR L858R/T790M/C797S mutant; type: biochemical; conditions: 33P ATP, room temperature, 120 m
# Method: as §5, §6
# EGFR (D746-750) = EGFR (D746-750) (Homo sapiens, UniProt P00533, DEL746-750); assay: HotSpot radiometric kinase assay, inhibition of EGFR 746-750 mutant; type: biochemical; conditions: 33P ATP, room temperature, 120 m
# Method: as §5, §6
# [2] = molecular target: T2, pEGFR, NCI-H1975 cells (L858R/T790M EGFR) (Homo sapiens, UniProt P00533, L858R/T790M); assay: Cellular EGFR phosphorylation assay (LANCE Ultra TR-FRET) in NCI-H1975 cells; type: cell-based; conditions: 4 hours at 37° C., read-out: H1975 pEGFR IC50
# T2 construct: pEGFR (Tyr1068) TR-FRET
# Method: as §3, §4
# [3] = molecular target: T3, pEGFR, PC-9 cells (d746-750 EGFR) (Homo sapiens, UniProt P00533, DEL746-750); assay: Cellular EGFR phosphorylation assay (LANCE Ultra TR-FRET) in PC-9 cells; type: cell-based; conditions: 4 hours at 37° C., read-out: PC-9 pEGFR IC50
# T3 construct: pEGFR (Tyr1068) TR-FRET
# Method: as §3, §4
# [4] = system: BaF3 cells with engineered EGFR L858R/T790M/C797S; assay: 3-Day CellTiter Glo (CTG) cell proliferation assay, BaF3 EGFR L858R/T790M/C797S; type: cell-based; conditions: Mus musculus, 3-day CTG proliferation, 72 hours
# Method: 3-DAY CellTiter Glo (CTG) Cell Proliferation Assays (BaF3 Cell Lines)
# Cell proliferation assays were carried out in BaF3 cells engineered with EGFR mutations. BaF3 cells with engineered EGFR L858R/T790M/C797S, EGFR L858R/C797S, or EGFR d746-750/T790M transgene, one thousand cells/50 μL per well were seeded in white 384-well plate, followed by treatment with indicated compounds in a 9-dose dilution series using TECAN d300e liquid dispenser. Cells were incubated with compounds for 72 hours at 37° C. and 5% CO2. Cell proliferation was measured using CellTiter-Gbo 2.0 luciferase-based ATP detection assay (Promega, Madison, WI) at 18 μL per well following the manufacturer's protocol. Plates were then read on a TECAN Sparks multimode microplate reader. Data was analyzed using GraphPad Prism 9 (GraphiPad Software, San Diego, CA) to obtain IC50 values.
# [5] = HCC827 cells (d746-750 EGFR), 5-day CTG proliferation, 120 hours
# [6] = NCI-H1975 cells (L858R/T790M EGFR), 5-day CTG proliferation, 120 hours
# [7] = PC-9 cells (d746-750 EGFR), 5-day CTG proliferation, 120 hours
# T1 sequence (P00533 25-1210): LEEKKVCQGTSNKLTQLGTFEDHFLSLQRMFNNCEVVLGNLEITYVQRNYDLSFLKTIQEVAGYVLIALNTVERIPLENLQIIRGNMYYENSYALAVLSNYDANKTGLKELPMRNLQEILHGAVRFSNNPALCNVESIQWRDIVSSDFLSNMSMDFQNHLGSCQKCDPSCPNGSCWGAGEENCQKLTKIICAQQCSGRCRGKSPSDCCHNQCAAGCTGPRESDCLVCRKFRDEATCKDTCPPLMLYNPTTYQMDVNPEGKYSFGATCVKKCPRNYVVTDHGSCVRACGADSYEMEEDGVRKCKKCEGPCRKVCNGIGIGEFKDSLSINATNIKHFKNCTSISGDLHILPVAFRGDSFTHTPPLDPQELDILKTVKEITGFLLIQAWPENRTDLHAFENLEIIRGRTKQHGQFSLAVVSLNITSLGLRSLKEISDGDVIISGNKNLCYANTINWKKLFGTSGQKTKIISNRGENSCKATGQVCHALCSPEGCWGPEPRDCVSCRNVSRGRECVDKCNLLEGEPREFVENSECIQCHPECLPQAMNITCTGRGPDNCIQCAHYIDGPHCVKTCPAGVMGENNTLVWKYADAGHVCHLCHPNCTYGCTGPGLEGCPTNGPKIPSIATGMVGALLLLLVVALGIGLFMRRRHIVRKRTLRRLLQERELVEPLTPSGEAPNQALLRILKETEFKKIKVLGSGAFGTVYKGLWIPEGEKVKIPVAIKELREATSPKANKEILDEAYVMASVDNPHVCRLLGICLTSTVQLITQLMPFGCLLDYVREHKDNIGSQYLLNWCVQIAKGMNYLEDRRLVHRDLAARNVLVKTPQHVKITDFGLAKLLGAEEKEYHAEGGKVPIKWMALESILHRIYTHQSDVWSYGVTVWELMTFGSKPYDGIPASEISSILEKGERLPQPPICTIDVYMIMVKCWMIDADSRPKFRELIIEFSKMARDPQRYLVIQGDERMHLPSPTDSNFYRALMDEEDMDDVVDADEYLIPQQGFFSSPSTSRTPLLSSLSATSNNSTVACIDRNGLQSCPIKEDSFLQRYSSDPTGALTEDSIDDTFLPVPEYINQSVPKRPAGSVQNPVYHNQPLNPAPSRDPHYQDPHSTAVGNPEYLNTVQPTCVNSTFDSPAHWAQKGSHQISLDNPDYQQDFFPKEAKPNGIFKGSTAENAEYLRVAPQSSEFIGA
# T2 sequence (P00533 25-1210 T790M/L858R): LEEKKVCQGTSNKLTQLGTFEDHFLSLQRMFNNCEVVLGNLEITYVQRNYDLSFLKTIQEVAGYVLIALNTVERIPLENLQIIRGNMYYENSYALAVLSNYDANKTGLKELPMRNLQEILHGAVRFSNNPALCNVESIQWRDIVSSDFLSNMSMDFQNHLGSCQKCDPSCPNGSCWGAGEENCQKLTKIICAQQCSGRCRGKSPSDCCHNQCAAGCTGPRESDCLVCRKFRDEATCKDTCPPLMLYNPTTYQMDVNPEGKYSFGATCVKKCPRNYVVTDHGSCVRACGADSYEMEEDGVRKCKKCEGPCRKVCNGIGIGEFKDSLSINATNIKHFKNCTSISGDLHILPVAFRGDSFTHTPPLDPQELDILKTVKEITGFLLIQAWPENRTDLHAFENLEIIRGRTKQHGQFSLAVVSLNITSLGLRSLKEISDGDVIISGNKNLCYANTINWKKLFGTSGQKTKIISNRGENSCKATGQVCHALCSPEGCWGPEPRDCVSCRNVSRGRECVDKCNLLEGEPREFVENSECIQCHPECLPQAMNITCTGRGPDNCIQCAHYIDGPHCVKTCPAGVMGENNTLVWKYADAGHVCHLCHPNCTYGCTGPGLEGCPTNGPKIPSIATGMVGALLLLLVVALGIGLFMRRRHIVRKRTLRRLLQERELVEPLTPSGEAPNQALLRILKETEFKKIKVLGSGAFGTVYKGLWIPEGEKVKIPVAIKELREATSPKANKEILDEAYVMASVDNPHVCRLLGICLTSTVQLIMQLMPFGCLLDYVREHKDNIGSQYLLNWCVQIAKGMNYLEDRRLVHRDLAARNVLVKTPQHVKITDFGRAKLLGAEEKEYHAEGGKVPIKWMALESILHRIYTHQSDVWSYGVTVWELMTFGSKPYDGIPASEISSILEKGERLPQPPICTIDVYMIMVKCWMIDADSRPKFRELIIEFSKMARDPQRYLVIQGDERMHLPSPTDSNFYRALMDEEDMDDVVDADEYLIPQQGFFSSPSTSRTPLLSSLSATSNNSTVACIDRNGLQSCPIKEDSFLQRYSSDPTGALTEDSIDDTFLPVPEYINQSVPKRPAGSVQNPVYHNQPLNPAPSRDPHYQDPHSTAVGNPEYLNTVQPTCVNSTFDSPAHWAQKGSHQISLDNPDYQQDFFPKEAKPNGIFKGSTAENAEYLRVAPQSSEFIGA
# EGFR (L858R/T790M/C797S), sequence (P00533 25-1210 T790M/C797S/L858R): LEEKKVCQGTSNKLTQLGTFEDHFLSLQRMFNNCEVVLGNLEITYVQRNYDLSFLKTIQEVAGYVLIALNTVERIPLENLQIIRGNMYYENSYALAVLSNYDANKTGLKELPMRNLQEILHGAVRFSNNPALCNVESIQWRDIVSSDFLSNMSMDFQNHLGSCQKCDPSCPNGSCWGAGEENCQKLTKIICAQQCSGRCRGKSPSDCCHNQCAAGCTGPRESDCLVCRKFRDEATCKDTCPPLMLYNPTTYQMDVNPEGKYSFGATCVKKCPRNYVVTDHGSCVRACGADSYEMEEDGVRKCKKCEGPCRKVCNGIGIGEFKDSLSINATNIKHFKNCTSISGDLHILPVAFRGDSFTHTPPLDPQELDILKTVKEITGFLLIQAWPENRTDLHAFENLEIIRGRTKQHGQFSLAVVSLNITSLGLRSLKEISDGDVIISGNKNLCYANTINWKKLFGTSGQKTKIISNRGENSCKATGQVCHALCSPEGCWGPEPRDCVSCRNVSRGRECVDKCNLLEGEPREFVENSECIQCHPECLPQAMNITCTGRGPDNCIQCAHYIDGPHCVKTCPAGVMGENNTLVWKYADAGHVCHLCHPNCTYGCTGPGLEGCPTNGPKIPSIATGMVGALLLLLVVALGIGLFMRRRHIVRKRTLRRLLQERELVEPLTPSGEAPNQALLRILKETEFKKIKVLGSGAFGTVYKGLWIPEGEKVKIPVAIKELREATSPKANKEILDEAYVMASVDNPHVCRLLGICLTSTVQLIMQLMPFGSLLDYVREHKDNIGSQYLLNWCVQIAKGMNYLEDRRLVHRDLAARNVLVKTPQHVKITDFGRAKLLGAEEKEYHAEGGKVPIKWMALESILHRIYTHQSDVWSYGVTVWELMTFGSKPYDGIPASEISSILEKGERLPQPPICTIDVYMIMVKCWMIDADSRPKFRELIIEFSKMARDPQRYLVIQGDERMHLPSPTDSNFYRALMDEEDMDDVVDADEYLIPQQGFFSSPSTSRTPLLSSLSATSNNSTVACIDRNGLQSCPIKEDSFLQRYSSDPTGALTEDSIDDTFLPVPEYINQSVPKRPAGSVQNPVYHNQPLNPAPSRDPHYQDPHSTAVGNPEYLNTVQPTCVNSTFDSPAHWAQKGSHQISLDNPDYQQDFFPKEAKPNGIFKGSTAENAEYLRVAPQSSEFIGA
# EGFR (D770_N771insNPG), sequence (P00533 with tags, fused parts or gaps INS770NPG limits assumed): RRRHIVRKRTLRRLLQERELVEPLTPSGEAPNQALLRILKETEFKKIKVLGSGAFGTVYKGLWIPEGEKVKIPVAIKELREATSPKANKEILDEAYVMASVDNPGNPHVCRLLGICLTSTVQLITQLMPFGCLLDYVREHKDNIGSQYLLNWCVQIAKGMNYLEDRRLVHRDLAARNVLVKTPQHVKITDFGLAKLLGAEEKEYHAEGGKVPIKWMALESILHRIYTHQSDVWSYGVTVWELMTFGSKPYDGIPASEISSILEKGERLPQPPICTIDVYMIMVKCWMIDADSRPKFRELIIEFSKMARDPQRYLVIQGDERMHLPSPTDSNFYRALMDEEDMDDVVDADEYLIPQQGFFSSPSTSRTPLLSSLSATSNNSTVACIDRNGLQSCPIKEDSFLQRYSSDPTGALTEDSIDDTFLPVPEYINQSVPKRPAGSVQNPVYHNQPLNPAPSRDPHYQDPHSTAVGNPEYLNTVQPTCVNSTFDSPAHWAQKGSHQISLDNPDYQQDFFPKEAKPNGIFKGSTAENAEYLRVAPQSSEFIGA
IC50 (HCC827 cells; [5]),IC50 (NCI-H1975 cells; [6]),IC50 (PC-9 cells; [7]),IC50 [1],IC50 (EGFR (D746-750/C797S)),IC50 (EGFR (D770_N771insNPG)),IC50 (EGFR (L858R/T790M/C797S)),IC50 (EGFR (D746-750)),IC50 [2],IC50 [3],Compound,other results
0.34 nM,20.4 nM,0.59 nM,11.3 nM,–,–,–,–,–,–,"CCOc1nn([C@@H](C)CO)c2c1/C=C/c1n[nH]c3c(C)nc(cc13)-c1c(COC)nn(C)c1O[C@@H](C)CN(CC)C2 [Ex. 147, (2S)-2-[(10S,17E)-16-ethoxy-12-ethyl-6-(methoxymethyl)-8,10,20-trimethyl-2,8,10,11,12,13-hexahydro-14H-5,3-(azenometheno)tripyrazolo[3,4-f:3′,4′-j:4″,3″-n][1,4]oxazacyclopentadecin-14-yl]propan-1-ol]",–
–,–,–,–,1.04 nM,0.42 nM,0.54 nM,0.36 nM,–,–,"CCN1CCOc2c(c(C)nn2C)-c2cc3c(n[nH]c3cn2)/C=C/c2c(OCC#N)nn([C@@H](C)CO)c2C1 [Ex. 66, {[(17E)-12-ethyl-4-[(2S)-1-hydroxypropan-2-yl]-6,8-dimethyl-2,10,11,12,13,14-hexahydro-8H-5,3-(azenometheno)tripyrazolo[3,4-f:3′,4′-j:4″,3″-n][1,4]oxazacyclopentadecin-16-yl]oxy}acetonitrile]",–
–,–,–,5.88 nM,–,–,–,–,1.82 nM,0.97 nM,"[2H]C([2H])([2H])C([2H])([2H])Oc1nn([C@@H](C)CO)c2c1/C=C/c1n[nH]c3cnc(cc13)-c1c(C)nn(C)c1O[C@@H](C)CN(C)C2 [Ex. 87, (2S)-2-[(10S,17E)-16-[(^2H5)ethyloxy]-6,8,10,12-tetramethyl-2,8,10,11,12,13-hexahydro-14H-5,3-(azenometheno)tripyrazolo[3,4-f:3′,4′-j:4″,3″-n][1,4]oxazacyclopentadecin-14-yl]propan-1-ol]","IC50 (HCC827 cells; HCC827, 120 h): 0.23 nM; IC50 (NCI-H1975 cells; NCI-H1975, 120 h): 0.57 nM; IC50 (PC-9 cells; PC-9, 120 h): 0.36 nM"
–,–,–,–,0.83 nM,0.35 nM,0.56 nM,0.29 nM,–,–,"Cc1nn(C)c2c1-c1cc3c(n[nH]c3cn1)/C=C/c1c(OCC#N)nn(CCO)c1CN(C)C[C@@H](C)O2 [Ex. 42, {[(10R,17E)-14-(2-hydroxyethyl)-6,8,10,12-tetramethyl-2,10,11,12,13,14-hexahydro-8H-5,3-(azenometheno)tripyrazolo[3,4-f:3′,4′-j:4″,3″-n][1,4]oxazacyclopentadecin-16-yl]oxy}acetonitrile]",–
–,–,–,–,0.23 nM,0.18 nM,0.16 nM,0.09 nM,–,–,"Cc1nn(C)c2c1-c1cc3c(n[nH]c3cn1)/C=C/c1c(OCC#N)nn(CCO)c1CN1CCC[C@@H]1CO2 [Ex. 43, {[(8aR,19E)-3-(2-hydroxyethyl)-11,13-dimethyl-3,4,7,8,8a,9,11,17-octahydro-6H-14,16-(azenometheno)tripyrazolo[3,4-f:3′,4′-j:4″,3″-n]pyrrolo[2,1-c][1,4]oxazacyclopentadecin-1-yl]oxy}acetonitrile]",–
0.24 nM,5.53 nM,23.7 nM,564 nM,–,–,–,–,–,72.6 nM,"Cc1c2c(nn1C)CN(C)CCOc1c(cnn1C)-c1cc3c(n[nH]c3cn1)/C=C/2 [Ex. 73, (17E)-8,12,15,16-tetramethyl-2,10,11,12,13,15-hexahydro-8H-5,3-(azenometheno)tripyrazolo[3,4-f:3′,4′-j:4″,3″-n][1,4]oxazacyclopentadecine]",IC50 [4]: 35.8 nM
–,–,–,–,0.71 nM,0.25 nM,0.46 nM,0.21 nM,–,–,Cc1nn(C)c2c1-c1cc3c(n[nH]c3c(C)n1)/C=C/c1c(OCC#N)nn([C@@H](C)CO)c1CN(C)C[C@H](C)O2 [Ex. 52],–
0.42 nM,4.89 nM,1.55 nM,26.6 nM,–,–,–,–,3.24 nM,2.04 nM,"Cc1nn(C)c2c1-c1cc3c(n[nH]c3c(C)n1)/C=C/c1c(OCC#N)nn([C@@H](C)CO)c1CN(CC(F)F)C[C@H](C)O2 [Ex. 151, {[(10S,17E)-12-(2,2-difluoroethyl)-14-[(2S)-1-hydroxypropan-2-yl]-6,8,10,20-tetramethyl-2,10,11,12,13,14-hexahydro-8H-5,3-(azenometheno)tripyrazolo[3,4-f:3′,4′-j:4″,3″-n][1,4]oxazacyclopentadecin-16-yl]oxy}acetonitrile]",–
–,–,–,–,0.83 nM,1.11 nM,0.37 nM,0.31 nM,–,–,"Cc1nn(CCO)c2c1/C=C/c1n[nH]c3c(C)nc(cc13)-c1cnn(C)c1O[C@@H](C)CN(C)C2 [Ex. 51, 2-[(10S,17E)-8,10,12,16,20-pentamethyl-2,8,10,11,12,13-hexahydro-14H-5,3-(azenometheno)tripyrazolo[3,4-f:3′,4′-j:4″,3″-n][1,4]oxazacyclopentadecin-14-yl]ethan-1-ol]",–
0.29 nM,1.76 nM,0.76 nM,40.5 nM,–,–,–,–,2.9 nM,1.94 nM,"CCN1Cc2c(c(OCC#N)nn2[C@@H](C)CO)/C=C/c2n[nH]c3c(C)nc(cc23)-c2c(C)nn(C)c2O[C@@H](C)C1 [Ex. 148, {[(10S,17E)-12-ethyl-14-[(2S)-1-hydroxypropan-2-yl]-6,8,10,20-tetramethyl-2,10,11,12,13,14-hexahydro-8H-5,3-(azenometheno)tripyrazolo[3,4-f:3′,4′-j:4″,3″-n][1,4]oxazacyclopentadecin-16-yl]oxy}acetonitrile]",–
